Measurements from ChEMBL document CHEMBL1201862, “PubChem BioAssay data set” (2004).
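Assay format: 96-well plates, 48-hour exposure. At the GI50, growth is halved.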 Calls of active or inactive are those of the source. Rule as the data show it: active = GI50 up to about 1.1 µM and inactive = higher.

Tests used:
Test in all cases: growth of human tumour cells (NCI), 48 h
[1] = test system: A498
[2] = test system: BT-549
[3] = test system: CAKI-1
[4] = test system: CCRF-CEM
[5] = test system: HOP-62
[6] = test system: Hs-578T
[7] = test system: IGROV-1
[8] = test system: KM12
[9] = test system: M14
[10] = test system: OVCAR-3
[11] = test system: PC-3
[12] = test system: SF-268
[13] = test system: SF-295
[14] = test system: SK-MEL-2
[15] = test system: SK-OV-3
[16] = test system: SN12C
[17] = test system: SNB-19
[18] = test system: TK-10

Row | Compound | GI50 [1] | GI50 [2] | GI50 [3] | GI50 [4] | GI50 [5] | GI50 [6] | GI50 [7] | GI50 [8] | GI50 [9] | GI50 [10] | GI50 [11] | GI50 [12] | GI50 [13] | GI50 [14] | GI50 [15] | GI50 [16] | GI50 [17] | GI50 [18]
1 | COC(=O)c1oc([N+](=O)[O-])c(Cl)c1Cl | 15.1 µM (inactive) | 7.98 µM (inactive) | 2.44 µM (inactive) | 2.21 µM (inactive) | 8.71 µM (inactive) | 11.4 µM (inactive) | 7.67 µM (inactive) | 5.83 µM (inactive) | 7.28 µM (inactive) | 6.1 µM (inactive) | 8.34 µM (inactive) | 8.28 µM (inactive) | 11.8 µM (inactive) | 12.2 µM (inactive) | 19 µM (inactive) | 7.53 µM (inactive) | 18.7 µM (inactive) | 7.36 µM (inactive)
2 | Nn1c(-c2ccccc2)n[nH]c1=O | > 100 µM (inactive) | > 100 µM (inactive) | > 100 µM (inactive) | > 100 µM (inactive) | > 100 µM (inactive) | 58.3 µM (inactive) | > 100 µM (inactive) | > 100 µM (inactive) | > 100 µM (inactive) | > 100 µM (inactive) | > 100 µM (inactive) | > 100 µM (inactive) | > 100 µM (inactive) | > 100 µM (inactive) | > 100 µM (inactive) | > 100 µM (inactive) | > 100 µM (inactive) | > 100 µM (inactive)
3 | CC1CN(CCO)CC(C)O1 (stereo not drawn) | > 100 µM (inactive) | > 100 µM (inactive) | > 100 µM (inactive) | > 100 µM (inactive) | > 100 µM (inactive) | > 100 µM (inactive) | > 100 µM (inactive) | > 100 µM (inactive) | > 100 µM (inactive) | > 100 µM (inactive) | > 100 µM (inactive) | > 100 µM (inactive) | > 100 µM (inactive) | > 100 µM (inactive) | > 100 µM (inactive) | > 100 µM (inactive) | > 100 µM (inactive) | > 100 µM (inactive)
4 | CSc1c(C(=O)Nc2ccc(Cl)cc2)c(N)nn1-c1ccccc1 | > 35.3 µM (inactive) | > 100 µM (inactive) | > 100 µM (inactive) | > 100 µM (inactive) | 80 µM (inactive) | > 28.2 µM (inactive) | > 100 µM (inactive) | > 100 µM (inactive) | > 100 µM (inactive) | > 100 µM (inactive) | > 100 µM (inactive) | > 100 µM (inactive) | > 100 µM (inactive) | > 100 µM (inactive) | 19.6 µM (inactive) | > 100 µM (inactive) | > 100 µM (inactive) | > 38.9 µM (inactive)
5 | COC(=O)C(=O)C(C(=O)OC)C(=O)C(=O)Nc1c(Cl)cc([N+](=O)[O-])cc1Cl (stereo not drawn) | > 100 µM (inactive) | > 100 µM (inactive) | > 100 µM (inactive) | > 10 µM (inactive) | 37.1 µM (inactive) | 66.2 µM (inactive) | 44.9 µM (inactive) | > 100 µM (inactive) | > 100 µM (inactive) | > 100 µM (inactive) | > 100 µM (inactive) | 40.1 µM (inactive) | 64 µM (inactive) | > 100 µM (inactive) | > 100 µM (inactive) | > 100 µM (inactive) | > 100 µM (inactive) | 62.4 µM (inactive)
6 | C(/c1ccco1)=c1/nc(-c2ccccc2)n2c1nc1ccccc12 | > 100 µM (inactive) | 15.8 µM (inactive) | 5.51 µM (inactive) | 16.6 µM (inactive) | 2.05 µM (inactive) | 49.1 µM (inactive) | 11.3 µM (inactive) | 11.2 µM (inactive) | 22.6 µM (inactive) | 9.06 µM (inactive) | 1.04 µM (active) | 31.4 µM (inactive) | 12.9 µM (inactive) | 28.2 µM (inactive) | 22.4 µM (inactive) | 37.4 µM (inactive) | > 100 µM (inactive) | 34.8 µM (inactive)
7 | COc1cccc2c1OC1(C=C2)Oc2ccccc2C(=O)N1C (stereo not drawn) | 19.6 µM (inactive) | 31.2 µM (inactive) | 8.18 µM (inactive) | 12.2 µM (inactive) | 51.5 µM (inactive) | 21.5 µM (inactive) | 27.7 µM (inactive) | 19.1 µM (inactive) | 40.8 µM (inactive) | 37.8 µM (inactive) | 27.2 µM (inactive) | 34.3 µM (inactive) | 22.8 µM (inactive) | 54.5 µM (inactive) | 25.9 µM (inactive) | 22.5 µM (inactive) | 56.2 µM (inactive) | 24.9 µM (inactive)
8 | CC12CCC(C1)C(C)(C)C2OC(=O)c1ccccc1N (stereo not drawn) | 15.2 µM (inactive) | 19.1 µM (inactive) | 15.2 µM (inactive) | 0.678 µM (active) | 16.9 µM (inactive) | 15.6 µM (inactive) | 25.8 µM (inactive) | 16.3 µM (inactive) | 16.6 µM (inactive) | 15.2 µM (inactive) | 14.3 µM (inactive) | 16.8 µM (inactive) | 17.3 µM (inactive) | 14.8 µM (inactive) | 16.7 µM (inactive) | 17.6 µM (inactive) | 17.2 µM (inactive) | 16.9 µM (inactive)
9 | O=S1(=O)CCN(Cc2ccccc2)/C1=N\S(=O)(=O)c1ccc(Cl)cc1 | 28.5 µM (inactive) | 17.2 µM (inactive) | 19.1 µM (inactive) | 24.9 µM (inactive) | 65.2 µM (inactive) | 26.2 µM (inactive) | 17.8 µM (inactive) | 27.4 µM (inactive) | 17.3 µM (inactive) | 19.4 µM (inactive) | 18 µM (inactive) | 16.6 µM (inactive) | 48.2 µM (inactive) | 23.4 µM (inactive) | 47.4 µM (inactive) | 19.2 µM (inactive) | 57 µM (inactive) | 17 µM (inactive)
10 | [N-]=[N+]=Nc1c([N+](=O)[O-])c(=O)n2c3c(cccc13)CCC2 | 27 µM (inactive) | 18.4 µM (inactive) | 13.2 µM (inactive) | 1.97 µM (inactive) | > 100 µM (inactive) | 26.2 µM (inactive) | 20.8 µM (inactive) | 17 µM (inactive) | 10.8 µM (inactive) | 17 µM (inactive) | 16.9 µM (inactive) | 13.6 µM (inactive) | > 65.5 µM (inactive) | 16.6 µM (inactive) | > 100 µM (inactive) | 9.77 µM (inactive) | > 67.8 µM (inactive) | 20 µM (inactive)
11 | CC1=C[C@H](C[C@]2(C)c3c(c4c(C)cccc4oc3=O)O[C@@H]2C)OC1=O | > 100 µM (inactive) | 23.4 µM (inactive) | > 100 µM (inactive) | 19.3 µM (inactive) | > 100 µM (inactive) | 63.1 µM (inactive) | > 100 µM (inactive) | > 100 µM (inactive) | 66.1 µM (inactive) | 37 µM (inactive) | > 100 µM (inactive) | 24.4 µM (inactive) | > 100 µM (inactive) | > 100 µM (inactive) | > 100 µM (inactive) | 54.8 µM (inactive) | > 100 µM (inactive) | > 100 µM (inactive)
